“And” between values parts separate entries of the source, which are not always exact repeats. Identical values can stand only once. Blank lines part the entries; values can stand above or below the compound they belong to.
Assay: solvent given as SMILES

Compound: CCCCCCCCC1(CCCCCCCC)c2cc(-c3ccc(C=C4C(=O)c5ccccc5C4=O)cc3)ccc2-c2ccc(-c3ccc(C=C4C(=O)c5ccccc5C4=O)cc3)cc21
absorption maximum (in C1CCOC1): 436 nm
absorption maximum (in CC(C)=O): 433 nm
absorption maximum (in CCCCCC): 419 nm
absorption maximum (in CS(C)=O): 441 nm
absorption maximum (in Cc1ccccc1): 429 nm
absorption maximum (in ClC(Cl)Cl): 444 nm

Compound: CC(C)c1cc(C(C)C)c(B2c3ccccc3Oc3cc(-n4c5ccccc5c5ccc6c(c7ccccc7n6-c6ccccc6)c54)ccc32)c(C(C)C)c1
absorption maximum (in Cc1ccccc1): 438 nm

Compound: CC(C)(C)c1ccc(C#Cc2cc(C#Cc3ccc(C(C)(C)C)cc3)c(C#Cc3ccc(C(C)(C)C)cc3)c(C#Cc3ccc(C(C)(C)C)cc3)c2C#Cc2ccc(C(C)(C)C)cc2)cc1
absorption maximum (in ClCCl): 373 nm

Compound: O=C(/C=C/c1cn(-c2ccccc2)nc1-c1ccccc1)c1c(O)c2ccccc2oc1=O
absorption maximum (in C1CCOC1): 406 nm
absorption maximum (in C1COCCO1): 405 nm
absorption maximum (in CCO): 400 nm
absorption maximum (in CCOC(C)=O): 402 nm
absorption maximum (in CN(C)C=O): 381 nm
absorption maximum (in CO): 352 nm
absorption maximum (in CS(C)=O): 401 nm
absorption maximum (in Cc1ccccc1): 409 nm
absorption maximum (in ClC(Cl)Cl): 405 nm
absorption maximum (in ClCCl): 404 nm

Compound: CC1(C)c2ccccc2N(c2ccc(-c3nc4cc(C#N)c(C#N)cc4nc3-c3ccc(N4c5ccccc5C(C)(C)c5ccccc54)cc3)cc2)c2ccccc21
absorption maximum (in Cc1ccccc1): 454 nm

Compound: CC[B-]1(CC)c2cccc3c4c5c(cccc5c(c23)-c2cccc(C)[n+]21)[B-](CC)(CC)[n+]1c(C)cccc1-4
absorption maximum (in ClCCl): 538 nm

Compound: CCC1=C(C)C2=Cc3c4ccccc4c4n3[B-](C)(Oc3ccccc3-4)[N+]2=C1C (centres undefined)
absorption maximum (in CC#N): 616 nm
absorption maximum (in CCCCCC): 621 nm
absorption maximum (in Cc1ccccc1): 625 nm
absorption maximum (in ClCCl): 622 nm

Compound: Cc1ccc(C2=C3C=c4c(oc5ccccc45)=[N+]3[B-](F)(F)n3c2cc2c4ccccc4oc23)cc1
absorption maximum (in C1CCCCC1): 584.5 nm
absorption maximum (in C1CCOC1): 581.5 nm
absorption maximum (in CC#N): 578 nm
absorption maximum (in CCOC(C)=O): 579.5 nm
absorption maximum (in CN(C)C=O): 581.5 nm
absorption maximum (in CO): 578 nm
absorption maximum (in Cc1ccccc1): 588 nm
absorption maximum (in ClCCl): 584 nm and 583 nm

Compound: CC[N+]1(CC)CN2C(=N1)C(C(=O)O)=Cc1cc(C)ccc12
absorption maximum (in O): 379 nm

Compound: COc1cc(-c2nc3c4cccnc4c4ncccc4c3[nH]2)c(OC)cc1/C=C/c1ccncc1
absorption maximum (in C1CCOC1): 394 nm
absorption maximum (in CC#N): 392 nm
absorption maximum (in CN(C)C=O): 396 nm
absorption maximum (in Cc1ccccc1): 395 nm

Compound: c1ccc2c(c1)Sc1ccccc1N2c1ccc2c(c1)C1(CC1)c1cc(N3c4ccccc4Sc4ccccc43)ccc1-2
absorption maximum (in Cc1ccccc1): 307 nm

Compound: Cc1cc(C)c(C2=C3C=c4c(c5ccc(C(C)(C)C)cc5c5cc(C(C)(C)C)ccc45)=[N+]3[B-](F)(F)n3c2cc2c4ccc(C(C)(C)C)cc4c4cc(C(C)(C)C)ccc4c23)c(C)c1
absorption maximum (in C1CCCCC1): 693 nm
absorption maximum (in C1CCOC1): 692 nm
absorption maximum (in CC#N): 686 nm
absorption maximum (in Cc1ccccc1): 698 nm
absorption maximum (in ClCCl): 693 nm

Compound: CCCCCCCCc1ccc(-c2ccc(/C=C(\C#N)c3ccc(-c4cccc5cccc(-c6ccc(/C(C#N)=C/c7ccc(-c8ccc(CCCCCCCC)cc8)cc7)cc6)c45)cc3)cc2)cc1
absorption maximum (in Cc1ccccc1): 350 nm

Compound: CC(C)(C)c1ccc(C#Cc2nc(C#Cc3ccc(C(C)(C)C)cc3)c(C#Cc3ccc(C(C)(C)C)cc3)c(C#Cc3ccc(C(C)(C)C)cc3)c2C#Cc2ccc(C(C)(C)C)cc2)cc1
absorption maximum (in ClCCl): 421 nm

Compound: O=C1OC(=O)C2=C1[Se][C@]13C2=C[C@H](c2ccccc21)c1ccccc13
absorption maximum (in ClCCl): 421 nm

Compound: CN1C(=CC2=C([O-])C(=CC3=[N+](C)c4ccc(Cl)cc4C3(C)C)C2=O)C(C)(C)c2cc(Cl)ccc21
absorption maximum (in CO): 635 nm
absorption maximum (in ClC(Cl)Cl): 641 nm
absorption maximum (in ClCCl): 641 nm

Compound: CCN1c2ccc(/C=N/Nc3ccccn3)cc2Sc2cc(-c3cccc4ccccc34)ccc21
absorption maximum (in C1CCOC1): 378 nm
absorption maximum (in CS(C)=O): 383 nm
absorption maximum (in Cc1ccccc1): 378 nm
absorption maximum (in ClCCl): 379 nm

Compound: CC(C)(C)c1ccc(C2=C(c3ccc(C(C)(C)C)cc3)[Si](c3ccccc3)(c3ccccc3)c3ccccc32)cc1
absorption maximum (in C1CCOC1): 341 nm

Compound: O=c1oc2ccccc2cc1-c1cc2ccccc2o1
absorption maximum (in CC#N): 366 nm
absorption maximum (in CCOC(C)=O): 368 nm
absorption maximum (in CS(C)=O): 371 nm
absorption maximum (in Cc1ccccc1): 373 nm
absorption maximum (in O): 365 nm

Compound: F[B-]1(F)N2C(=Nc3cccc4cccc2c34)c2cccc[n+]21
absorption maximum (in CC#N): 350 nm
absorption maximum (in CO): 348 nm
absorption maximum (in CS(C)=O): 351 nm
absorption maximum (in Cc1ccccc1): 354 nm

Compound: CCCCCCc1ccc(-n2c3[n+](c4c5ccccc5c5ccccc5c42)[B-](C)(C)c2ccccc2-3)cc1
absorption maximum (in C1CCOC1): 359 nm
absorption maximum (in CC#N): 359 nm
absorption maximum (in Cc1ccccc1): 361 nm
absorption maximum (in ClCCl): 361 nm

Compound: c1ccc(-c2nc(-c3ccc(-c4nc(-c5ccccc5)c(-c5ccccc5)[nH]4)cc3)[nH]c2-c2ccccc2)cc1
absorption maximum (in C1CCOC1): 361 nm
absorption maximum (in CC#N): 355 nm and 358 nm
absorption maximum (in CC(=O)O): 360 nm
absorption maximum (in CC(C)=O): 360 nm
absorption maximum (in CCOC(C)=O): 359 nm
absorption maximum (in CCOCC): 359 nm
absorption maximum (in CO): 357 nm
absorption maximum (in CS(C)=O): 380 nm
absorption maximum (in ClC(Cl)Cl): 358 nm

Compound: OC1(c2ccc(-c3cccs3)s2)CCC(c2ccccc2)CC1 (centres undefined)
absorption maximum (in C1CCOC1): 313 nm
absorption maximum (in CC#N): 309 nm
absorption maximum (in CCCCCC): 307 nm
absorption maximum (in CCO): 309 nm
absorption maximum (in OCCOCCO): 311 nm
absorption maximum (in c1ccncc1): 314 nm

Compound: COC(=O)/C(C#N)=c1\s/c(=c2/s/c(=C(/C#N)C(=O)OC)c3cc(-c4ccc(F)cc4)sc23)c2sc(-c3ccc(F)cc3)cc12
absorption maximum (in Cc1ccccc1): 602 nm

Compound: CCn1c2ccccc2c2cc(-c3cc(-c4ccc5c(c4)c4ccccc4n5CC)nc(-c4ccc(C#N)cc4)n3)ccc21
absorption maximum (in C1CCOC1): 367 nm
absorption maximum (in CCOC(C)=O): 363 nm
absorption maximum (in CN(C)C=O): 370 nm
absorption maximum (in Cc1ccccc1): 366 nm
absorption maximum (in ClCCl): 365 nm

The remaining lines, values ahead:

absorption maximum (in CC#N): 510 nm
absorption maximum (in CCCCCC): 513 nm
absorption maximum (in CCOC(C)=O): 512 nm
absorption maximum (in CO): 511 nm
absorption maximum (in ClCCl): 515 nm
Compound: COC1=[N+]2C(=C(c3ccccc3)c3ccc(OC)n3[B-]2(F)F)C=C1

absorption maximum (in ClC(Cl)Cl): 345 nm
Compound: FC(F)(F)c1ccc2oc3nc4oc5ccc(N(c6ccccc6)c6ccccc6)cc5c4cc3c2c1

absorption maximum (in CC#N): 351 nm
absorption maximum (in CO): 349 nm
absorption maximum (in CS(C)=O): 357 nm
absorption maximum (in ClC(Cl)Cl): 353 nm
Compound: O=C1C=Cc2cc3ccccc3c(=O)n21

absorption maximum (in C1CCOC1): 340 nm
Compound: c1ccc(-n2c3ccccc3c3cc(-c4ccc5nc(-c6ccc(-n7c8ccccc8c8ccccc87)cc6)nn5c4)ccc32)cc1

absorption maximum (in CC#N): 360 nm
absorption maximum (in CCCCCCCCCCCCCCCC): 350 nm
absorption maximum (in CO): 367 nm
absorption maximum (in ClC(Cl)Cl): 357 nm
absorption maximum (in c1ccccc1): 355 nm
Compound: CC(C)(C)C1Nc2c(Cl)cc(Cl)cc2C(=O)N1Cc1ccccc1 (centres undefined)

absorption maximum (in C1CCOC1): 505 nm
Compound: c1cc2c3c4c5c(cccc5cc3c1)-c1cccn1B4n1cccc1-2

absorption maximum (in C1CCCCC1): 456 nm
absorption maximum (in C1CCOC1): 459.98 nm
absorption maximum (in CN(C)C=O): 457.04 nm
absorption maximum (in CO): 458.09 nm
absorption maximum (in ClC(Cl)Cl): 459.98 nm
absorption maximum (in c1ccccc1): 458.09 nm
Compound: CC1(C)Cc2c(c3ccccc3c3nc4ccccc4nc23)O1

absorption maximum (in CC#N): 320 nm
Compound: COc1ccc(C#Cc2ccccc2C#Cc2ccc(OC)cc2)cc1

absorption maximum (in C1CCOC1): 511 nm
Compound: CC1=[N+]2C(=C(c3ccc(C(=C(c4ccccc4)c4ccccc4)c4ccccc4)cc3)c3ccc(C)n3[B-]2(F)F)C=C1

absorption maximum (in CC#N): 388 nm
Compound: Cc1ccc(C)c2nc3c(=O)[nH]c(=O)[nH]c3nc12

absorption maximum (in C1CCOC1): 362 nm
Compound: N#Cc1c(N2CCCCC2)cc(-c2ccc3ccccc3c2)c2c1Cc1ccccc1-2

absorption maximum (in ClCCl): 427 nm
Compound: CCCCCCCCCCCCN1C(=O)c2c(c3ccc4cc(-c5ccc(C#N)cc5)c(OC)cc4c3c3c2ccc2cc(-c4ccc(C#N)cc4)c(OC)cc23)C1=O

absorption maximum (in C1CCOC1): 428 nm
Compound: COc1cc2c(cc1-c1ccc(N(c3ccccc3)c3ccccc3)cc1)Cc1c3c(c4c(c1-2)-c1cc(OC)c(-c2ccc(N(c5ccccc5)c5ccccc5)cc2)cc1C4)C(=O)N(CCC(C)C)C3=O

absorption maximum (in ClC(Cl)Cl): 575 nm
Compound: CC1=C(/C=C/c2ccccc2)C(C)=[N+]2C1=C(c1ccccc1)c1c(C)c(/C=C/c3ccccc3)c(C)n1[B-]2(F)F

absorption maximum (in ClCCl): 315 nm
Compound: COc1cc2c(cc1OC)C1=C[C@H](c3ccc(C)cc3)C3(C(C#N)=C(C#N)N1CC2)c1cc(Cl)ccc1-c1ccc(Cl)cc13

absorption maximum (in CCOC(C)=O): 416 nm
Compound: O=Cc1cc2c(cc3ccc4cccc5ccc2c3c45)[nH]1

absorption maximum (in CC#N): 341 nm
absorption maximum (in CCCCOCCCC): 341 nm
absorption maximum (in CO): 340 nm
Compound: Clc1nc(Cl)nc(Nc2ccc3ccc4cccc5ccc2c3c45)n1

absorption maximum (in CC#N): 338 nm
absorption maximum (in CCCCCC): 336 nm
Compound: c1ccc2c(c1)[nH]c1ncccc12

absorption maximum (in ClCCl): 325 nm
Compound: C(#Cc1ncc(-c2ccccc2)o1)c1ccco1

absorption maximum (in CCO): 330 nm
Compound: COC(=O)C(NC(=O)CCNc1cccc2ccccc12)c1ccccc1 (centres undefined)

absorption maximum (in C1CCCCC1): 325 nm
absorption maximum (in CC#N): 345 nm
absorption maximum (in CO): 355 nm
absorption maximum (in CS(C)=O): 350 nm
absorption maximum (in c1ccccc1): 340 nm
Compound: CN(C)c1ccc(C(=O)c2ccccc2)cc1

absorption maximum (in ClC(Cl)Cl): 432 nm
Compound: F[B-]1(F)OC(c2cccc(Br)c2)=Cc2c3ccccc3c3ccccc3[n+]21

absorption maximum (in ClCCl): 350 nm
Compound: COc1ccc(-c2cnc(/C=C/c3ccccc3)o2)cc1OC

absorption maximum (in ClC(Cl)Cl): 506 nm
Compound: CC1=CC(C)=[N+]2C1=C(c1ccc(I)cc1)c1c(C)cc(C)n1[B-]2(Oc1ccccc1)Oc1ccccc1

absorption maximum (in O): 347.28 nm
Compound: CNc1ccc(/C=C/C(=O)OC)cc1

absorption maximum (in CC#N): 390 nm
absorption maximum (in ClCCl): 387 nm
Compound: Cc1cc(O)c(C(=O)/C=C/c2ccc(O)c(O)c2)c(=O)o1

absorption maximum (in ClC(Cl)Cl): 484 nm
Compound: N#Cc1nc(N(Cc2ccc(I)cc2)Cc2ccc(I)cc2)c(C#N)nc1N(Cc1ccc(I)cc1)Cc1ccc(I)cc1

— the Deep4Chem optical property database
